We go through 1 compound from patent publication US6410551B1, “Tetrazole derivatives” (Byk Gulden Lomberg Chemische Fabrik GmbH, priority 1997, dated 2002).

Usually melting point stands for the temperature of the solid-liquid transition.

The subject of one data set is PDE 4. The data set is described as follows: Inhibition of PDE 4 activity (method of Bauer and Schwabe, adapted to microtiter plates). In kind it is biochemical. The settings on record: inhibitory concentration as -log IC50 (mol/l). How it is done: 1. Inhibition of PDE 4 Activity
The activity test was carried out by the method of Bauer and Schwabe, which was adapted to microtiter plates (Naunyn-Schmiedeberg's Arch. Pharmacol. 1980, 311, 193-198). In this connection, the PDE reaction is carried out in the first step. In a second step, the resultant 5′-nucleotide is cleaved to give the uncharged nucleoside by a 5′-nucleotidase of the snake venom from Crotalus atrox. In the third step, the nucleoside is separated from the remaining charged substrate on ion exchange columns. The columns are eluted with 2 ml of 30 mM ammonium formate (pH 6.0) directly into minivials to which 2 ml of scintilation fluid is additionally added for counting.

Consider `CCOc1cc2c(cc1OC)C(c1ccc(-c3nnn(CC)n3)cc1)=N[C@H]1CCCC[C@@H]21` (racemic) [Compound 2, (+/−)-cis-9-Ethoxy-8-methoxy-6-[4-(2ethyl-2H-tetrazol-5-yl)phenyl]-1,2,3,4,4a,10b-hexahydrophenanthridine], for which the melting point was in the range of 167 to 170 °C. In addition, in the data set with PDE 4, the “Inhibition of the PDE 4 activity, −log IC50” value came to 8.78.
